One series addresses T1, β2-Adrenoceptor (Rattus norvegicus, UniProt P10608).
T1 construct: The uteri of pregnant SD rats (pregnancy day of 21) were isolated; from tissue; host or cells: isolated uterus (longitudinal myometrial preparations) of pregnant SD rats, day 21
Put plainly: β2-Adrenoceptor stimulating effect: spontaneous contractions of isolated pregnant rat uterus (Magnus method). The conditions noted are these: isolated uterus of pregnant SD rats (day 21), cumulative addition every 5 minutes, 37° C.; read-out: 50% inhibitory drug concentration (EC50 value), uterine contractions. It counts as cell-based. The method, then:
The uteri of pregnant SD rats (pregnancy day of 21) were isolated, and longitudinal preparations of approximately 15 mm in length and approximately 5 mm in width free from the basal plate were prepared. The experiment was conducted according to the Magnus method. The preparations with a tension of 1 g were exposed to Locke-Ringer solution maintained at 37° C. and gassed with a mixture of 95% of oxygen and 5% of carbon dioxide. Spontaneous contractions of the myometrium were isometrically measured with a force-displacement transducer and recorded by a rectigram. 2-[4-[2-[[(1S, 2R)-2-Hydroxy-2-(4-hydroxyphenyl)-1-methylethyl]amino]ethyl]-phenoxy]acetic acid was cumulatively added to the Magnus bath every 5 minutes. The drug efficacy was evaluated by comparing the sum of uterine contractions during 5 minutes after the addition of the drug with that during 5 minutes before the addition of the drug which was expressed as 100%.

Series [1] can be described thus: Hygroscopicity (moisture absorption on standing under relative humidity). In kind it is physicochemical. The method, then: (§1) As examples of crystalline polymorphs other than the crystalline polymorph of the present invention, there are the crystalline polymorph (crystalline form γ) having strong diffraction peaks (diffraction angle: 2θ±0.1°) at 18.1, 19.7, 20.3, 21.2 and 22.4° and the crystalline polymorph (crystalline form […]) having strong diffraction peaks (diffraction angle: 2θ±0.1°) at 10.2, 13.2, 17.6, 19.8 and 20.6° in powder X-ray diffraction pattern. […] Thus, the crystalline polymorph of the present invention has an excellent low hygroscopicity and good storage. […] Thus, the crystalline polymorph of the present invention is favorable to oral administration and has a favorable efficiency in preparing liquid preparations such as injections.

The nature of the next series: Solubility in water. In kind it is physicochemical. The conditions noted are these: in water (37° C.). On the procedure: as §1
Series [2] is described as follows: Drug absorption on oral administration. The conditions noted are these: orally administered. It counts as in vivo. On the procedure:
as §1

Values after ≈ are worked out from the molar mass of the structure shown. Read-outs that look alike come from different tables or passages of the source.

T1 sequence (P10608 whole entry): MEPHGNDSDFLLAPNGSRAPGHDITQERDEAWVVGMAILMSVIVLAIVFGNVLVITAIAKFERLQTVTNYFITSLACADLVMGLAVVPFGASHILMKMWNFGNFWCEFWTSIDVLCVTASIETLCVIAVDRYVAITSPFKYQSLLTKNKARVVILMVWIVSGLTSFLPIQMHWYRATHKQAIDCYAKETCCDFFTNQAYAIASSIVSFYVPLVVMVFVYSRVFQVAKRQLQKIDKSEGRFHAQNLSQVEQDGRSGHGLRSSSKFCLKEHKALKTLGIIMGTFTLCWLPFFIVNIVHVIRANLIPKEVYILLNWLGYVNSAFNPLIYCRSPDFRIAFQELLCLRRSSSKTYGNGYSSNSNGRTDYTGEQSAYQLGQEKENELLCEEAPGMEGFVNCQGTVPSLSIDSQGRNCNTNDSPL

As to `C[C@H](NCCc1ccc(OCC(=O)O)cc1)[C@H](O)c1ccc(O)cc1` [2-[4-[2-[[(1S,2R)-2-hydroxy-2-(4-hydroxy-phenyl)-1-methylethyl]amino]ethyl]phenoxy]acetic acid], the EC50 on β2-Adrenoceptor was determined as 31 nM. Consider `CC(NCCc1ccc(OCC(=O)O)cc1)C(O)c1ccc(O)cc1` [crystalline form α, 2-[4-[2-[[(1S,2R)-2-Hydroxy-2-(4-hydroxyphenyl)-1-methyl-ethyl]amino]ethyl]phenoxy]acetic Acid (Crystalline Form α)], for which the “moisture absorption (hygroscopicity)” value in series [1] (allowed to stand for 10 days under relative humidities of 51-93%) is listed as “does not absorb moisture”. Moreover, the solubility (in general, the concentration that dissolves in the medium under given conditions) in “Solubility in water” (read-out: solubility) amounted to 2700 µg/mL (≈ 7.82 mM). Also, in series [2], the drug absorption entry is “excellent drug absorption”. `C[C@H](NCCc1ccc(OCC(=O)O)cc1)[C@H](O)c1ccc(O)cc1` [crystalline form γ, 2-[4-[2-[[(1S,2R)-2-Hydroxy-2-(4-hydroxyphenyl)-1-methyl-ethyl]amino]ethyl]phenoxy]acetic Acid (Crystalline Form γ)]: the “moisture absorption (hygroscopicity)” value in series [1] (conditions not given) was “easily absorb moisture to convert into their hydrates”.

`C[C@H](NCCc1ccc(OCC(=O)O)cc1)[C@H](O)c1ccc(O)cc1` [crystalline form δ, 2-[4-[2-[[(1S,2R)-2-Hydroxy-2-(4-hydroxyphenyl)-1-methyl-ethyl]amino]ethyl]phenoxy]acetic Acid (Crystalline Form δ)] came in with a solubility in “Solubility in water” of 1800 µg/mL (≈ 5.21 mM).

These data come from patent publication US6376707B1, “Crystal polymorphism of aminoethylphenoxyacetic acid derivative” (Kissei Pharmaceutical Co., Ltd., priority 1999, dated 2002).
